{"source": "EPA's ToxValDB 9.5 (doi:10.2903/j.efsa.2014.3812)", "key": {"[1]": {"system": "Typhlodromus pyri", "experiment": "LR50; higher = less toxic", "conditions": "not reported; mortality"}, "[2]": {"system": "Hypoaspis aculeifer", "conditions": "chronic/long-term"}, "[3]": {"system": "Tagia sp."}, "[4]": {"system": "Daphnia magna", "conditions": "chronic/long-term; duration: 21 days; reproduction"}, "[5]": {"system": "Folsomia candida", "conditions": "chronic/long-term"}, "[6]": {"system": "Colinus virginianus"}, "[7]": {"system": "Pimephales promelas"}, "[8]": {"system": "Rattus norvegicus"}, "[9]": {"system": "Apis mellifera", "conditions": "acute, mortality"}}, "data": [{"smiles": "O=C(O)COc1ccc(Cl)cc1Cl", "note": "[2,4-Dichlorophenoxyacetic acid]", "values": [{"measurement": "LR50", "setting": "[1]", "value": "> 3000", "unit": "g/ha"}, {"measurement": "NOEC", "setting": "[2]", "value": 5, "unit": "mg/kg"}, {"measurement": "LC50", "setting": "[3]; acute, duration: 14 days, mortality", "value": 350, "unit": "mg/kg"}, {"measurement": "NOEC", "setting": "[3]; chronic/long-term, duration: 8 weeks", "value": 62.5, "unit": "mg/kg"}, {"measurement": "NOEC", "setting": "[4]", "value": 38.4, "unit": "mg/L"}, {"measurement": "NOEC", "setting": "[5]", "value": 1.25, "unit": "mg/kg"}, {"measurement": "LD50", "setting": "[6]; acute, oral", "value": 500, "unit": "mg/kg-day"}, {"measurement": "NOAEL", "setting": "[6]; reproduction developmental", "value": 100, "unit": "mg/kg-day"}, {"measurement": "LC50", "setting": "[7]; acute, duration: 96 hours, mortality", "value": 100, "unit": "µg/mL"}, {"measurement": "NOEC", "setting": "[7]; chronic/long-term, duration: 32 days, growth", "value": 63.4, "unit": "mg/L"}, {"measurement": "LD50", "setting": "[8]; acute", "value": 486, "unit": "mg/kg-day"}, {"measurement": "NOAEL", "setting": "[8]; acute, clinical signs", "value": 75, "unit": "mg/kg-day"}, {"measurement": "NOAEL", "setting": "[8]; chronic", "value": 20.6, "unit": "mg/kg-day"}, {"measurement": "NOAEL", "setting": "[8]; chronic, duration: 2 years, organ weight", "value": 5, "unit": "mg/kg-day"}, {"measurement": "NOAEL", "setting": "[8]; subchronic, duration: 90 days, oral, histopathology: nonneoplastic", "value": 15, "unit": "mg/kg-day"}, {"measurement": "LD50", "setting": "[9]; dermal", "value": "> 100", "unit": "µg/piece"}, {"measurement": "LD50", "setting": "[9]; oral, unspecified", "value": 94, "unit": "µg/piece"}]}]}
